Data reported in patent publication US8034574B2, “Screening method for prokinetic agent” (Astellas Pharma Inc., priority 2006, dated 2011).
Entries after “also recorded” stand apart in the source; their conditions may differ.

Assays:
[1] = test system: CHO-K1 cells not expressing the polypeptide shown by SEQ ID NO:2; experiment: Intracellular calcium by FLIPR in negative control CHO-K1 cells; assay type: cell-based; details: CHO-K1 cells not expressing TRPA1
[2] = test system: RIN14B cells; experiment: Channel activity in RIN14B cells using calcium-sensitive fluorescent reagent (FLIPR); assay type: cell-based, rat; details: RIN14B cells, Fluo3-AM
Protocol: RIN14B cells (5×10^4 cells), wherein the expression of TRPA1 was confirmed in Example 10, were incubated in the presence of a calcium-sensitive fluorescent reagent (Fluo3-AM; DOJINDO) at 37° C. for 1 hour to thereby incorporate the calcium-sensitive fluorescent reagent in the cells, after which the cells were washed with physiological saline to remove the calcium-sensitive fluorescent reagent that had not been incorporated in the cells. To the cells obtained, physiological saline supplemented with allyl isothiocyanate, cinnamic aldehyde, or acrolein was added; the fluorescence emitted by the cells was measured over time. The above-described measurements were performed using an automated fluorescence detection apparatus (FLIPR; Molecular Device). […] Ruthenium Red was added concurrently and a measurement was performed to determine whether or not calcium inflow in the cells was be inhibited.

[3] = test system: RIN14B cells; experiment: Serotonin secretion from RIN14B cells (immunoassay); assay type: cell-based, rat; details: 20 minutes culture
Protocol: After RIN14B cells in culture in a Petri dish were detached using a PBS containing 1 mM EDTA, they were sown to a 96-well plate and cultured for 2 days. The medium used was RPMI1640 (Invitrogen Japan K.K.) supplemented with 10% fetal bovine serum (ICN), 100 U/ml penicillin, and 100 μg/ml streptomycin. After the cells were once washed with Hanks' Balanced Salt Solutions (HBSS, Invitrogen) supplemented with 0.1% BSA and 10 μM fluoxetine (TOCRIS), each TRPA1 activator, previously diluted/prepared with the above-described HBSS, was added, and the RIN14B cells were cultured at 37° C. in the presence of 5% CO2 for 20 minutes. After the cultivation, the cell supernatant was recovered, and stored under freezing. The serotonin content in the supernatant was measured using a commercially available serotonin immunoassay kit (Beckman).

## C=CCN=C=S [allyl isothiocyanate]
[1]
  elevation of fluorescence intensity in negative control cells: none of these compounds produced an elevation of fluorescence intensity
[2]
  elevation of fluorescence intensity (calcium inflow) in RIN14B cells: an elevation of fluorescence intensity was detected
[3]
  serotonin secretion from RIN14B cells: serotonin secretion was promoted; also recorded: concentration-dependently promoted the release of serotonin
